From patent publication US20200308170A1, “KRAS G12C INHIBITORS” (Mirati Therapeutics, Inc., priority 2017, published 2020)

Target: T1, KRas G12C (Homo sapiens, UniProt P01116, C118S/C51S/C80L/G12C)
T1 construct: GDP-loaded K-Ras (1-169) G12C, C51S, C80L, C118S
Test: KRas G12C Modification Assay (LCMS detection of covalent adduct)
Type: binding
Conditions: 5 μM concentration for 3 hours; LC/MS of intact protein; higher POC = higher degree of modification

Structure (SMILES): Cc1cccc2cccc(N3CCc4c(nc(OC[C@@H]5CCCN5C)nc4N4CCN(C(=O)C#CCO)[C@@H](CC#N)C4)C3)c12 [Example 37, 2-((S)-1-(4-hydroxybut-2-ynoyl)-4-(7-(8-methylnaphthalen-1-yl)-2-(((S)-1-methylpyrrolidin-2-yl)methoxy)-5,6,7,8-tetrahydropyrido[3,4-d]pyrimidin-4-yl)piperazin-2-yl)acetonitrile]
- POC (normalized percent of control; degree of covalent modification of KRas G12C): C (“C”>50% POC)

Structure (SMILES): Cc1cccc2cccc(N3CCc4c(nc(OC[C@@H]5CCCN5C)nc4N4CCN(C(=O)/C=C/Cn5cccn5)[C@@H](CC#N)C4)C3)c12 [Example 38, 2-((S)-1-((E)-4-(1H-pyrazol-1-yl)but-2-enoyl)-4-(7-(8-methylnaphthalen-1-yl)-2-(((S)-1-methylpyrrolidin-2-yl)methoxy)-5,6,7,8-tetrahydropyrido[3,4-d]pyrimidin-4-yl)piperazin-2-yl)acetonitrile]
- POC (normalized percent of control; degree of covalent modification of KRas G12C): C (“C”>50% POC)

Structure (SMILES): Cc1cccc2cccc(N3CCc4c(nc(OC[C@@H]5CCCN5C)nc4N4CCN(C(=O)/C=C/CO)[C@@H](CC#N)C4)C3)c12 [Example 39, 2-((S)-1-((E)-4-hydroxybut-2-enoyl)-4-(7-(8-methylnaphthalen-1-yl)-2-(((S)-1-methylpyrrolidin-2-yl)methoxy)-5,6,7,8-tetrahydropyrido[3,4-d]pyrimidin-4-yl)piperazin-2-yl)acetonitrile]
- POC (normalized percent of control; degree of covalent modification of KRas G12C): C (“C”>50% POC)

Structure (SMILES): COC/C=C/C(=O)N1CCN(c2nc(OC[C@@H]3CCCN3C)nc3c2CCN(c2cccc4cccc(C)c24)C3)C[C@@H]1CC#N [Example 40, 2-((S)-1-((E)-4-methoxybut-2-enoyl)-4-(7-(8-methylnaphthalen-1-yl)-2-(((S)-1-methylpyrrolidin-2-yl)methoxy)-5,6,7,8-tetrahydropyrido[3,4-d]pyrimidin-4-yl)piperazin-2-yl)acetonitrile]
- POC (normalized percent of control; degree of covalent modification of KRas G12C): C (“C”>50% POC)

Structure (SMILES): C=C(OC)C(=O)N1CCN(c2nc(OC[C@@H]3CCCN3C)nc3c2CCN(c2cccc4cccc(C)c24)C3)C[C@@H]1CC#N [Example 41, 2-[(2S)-1-(2-methoxyprop-2-enoyl)-4-[7-(8-methyl-1-naphthyl)-2-[[(2S)-1-methylpyrrolidin-2-yl]methoxy]-6,8-dihydro-5H-pyrido[3,4-d]pyrimidin-4-yl]piperazin-2-yl]acetonitrile]
- POC (normalized percent of control; degree of covalent modification of KRas G12C): A (“A”≤25% POC)

Structure (SMILES): CN1CCC[C@H]1COc1nc2c(c(N3CCN(C(=O)/C=C/CO)[C@@H](CC#N)C3)n1)CCN(c1cccc3cccc(Cl)c13)C2 [Example 42, 2-[(2S)-4-[7-(8-chloro-1-naphthyl)-2-[[(2S)-1-methylpyrrolidin-2-yl]methoxy]-6,8-dihydro-5H-pyrido[3,4-d]pyrimidin-4-yl]-1-[(E)-4-hydroxybut-2-enoyl]piperazin-2-yl]acetonitrile]
- POC (normalized percent of control; degree of covalent modification of KRas G12C): C (“C”>50% POC)

Structure (SMILES): C=C(OC)C(=O)N1CCN(c2nc(OC[C@@H]3CCCN3C)nc3c2CCN(c2cccc4cccc(Cl)c24)C3)C[C@@H]1CC#N [Example 43, 2-[(2S)-4-[7-(8-chloro-1-naphthyl)-2-[[(2S)-1-methylpyrrolidin-2-yl]methoxy]-6,8-dihydro-5H-pyrido[3,4-d]pyrimidin-4-yl]-1-(2-methoxyprop-2-enoyl)piperazin-2-yl]acetonitrile]
- POC (normalized percent of control; degree of covalent modification of KRas G12C): A (“A”≤25% POC)

Structure (SMILES): COC/C=C/C(=O)N1CCN(c2nc(OC[C@@H]3CCCN3C)nc3c2CCN(c2cccc4cccc(Cl)c24)C3)C[C@@H]1CC#N [Example 53, 2-((S)-4-(7-(8-chloronaphthalen-1-yl)-2-(((S)-1-methylpyrrolidin-2-yl)methoxy)-5,6,7,8-tetrahydropyrido[3,4-d]pyrimidin-4-yl)-1-((E)-4-methoxybut-2-enoyl)piperazin-2-yl)acetonitrile]
- POC (normalized percent of control; degree of covalent modification of KRas G12C): C (“C”>50% POC)

Structure (SMILES): C=C(NC(C)=O)C(=O)N1CCN(c2nc(OC[C@@H]3CCCN3C)nc3c2CCN(c2cccc4cccc(C)c24)C3)C[C@@H]1CC#N [Example 54, N-(3-((S)-2-(cyanomethyl)-4-(7-(8-methylnaphthalen-1-yl)-2-(((S)-1-methylpyrrolidin-2-yl)methoxy)-5,6,7,8-tetrahydropyrido[3,4-d]pyrimidin-4-yl)piperazin-1-yl)-3-oxoprop-1-en-2-yl)acetamide]
- POC (normalized percent of control; degree of covalent modification of KRas G12C): B (“B”>25% POC−≤50% POC)

Structure (SMILES): Cc1cccc2cccc(N3CCc4c(nc(OC[C@@H]5CCCN5C)nc4N4CCN(C(=O)/C=C/c5ccncc5)[C@@H](CC#N)C4)C3)c12 [Example 55, 2-((S)-4-(7-(8-methylnaphthalen-1-yl)-2-(((S)-1-methylpyrrolidin-2-yl)methoxy)-5,6,7,8-tetrahydropyrido[3,4-d]pyrimidin-4-yl)-1-((E)-3-(pyridin-4-yl)acryloyl)piperazin-2-yl)acetonitrile]
- POC (normalized percent of control; degree of covalent modification of KRas G12C): C (“C”>50% POC)
